Data set [1] is described as follows: Terminal half life in rat. The note with it: in vivo.
The test system of data set [2] is Homo sapiens. Put plainly: Protection against cisplatin-induced ototoxicity in human assessed as reduction in hearing loss administered iv 35 mins prior to cisplatin treatment. The format is functional. Also on record: scale not given: the % may be the effect or the level left.

Consider `[14CH3]SCC[C@@H](N)C(=O)O`, for which the half-life in data set [1] was 34.2 min.
Take `NCCCNCCSP(=O)(O)O` [AMIFOSTINE]: the Activity in data set [2] is 43%.

The record behind these values is ChEMBL document CHEMBL4219065, “Progress in the Development of Preventative Drugs for Cisplatin-Induced Hearing Loss” (J Med Chem, 2018).
